Measured values published in US12630498B2 (Genzyme Corporation, priority 2019, dated 2026).

Molecular target: T1, human Cystic Fibrosis Transmembrane Conductance Regulator (CFTR) harboring the ΔF508 mutation (Homo sapiens, UniProt P13569, DEL508-508)
T1 construct: expressed in transfected cells; host or cells: H441 carcinoma line (G418-selected)
Experiment: H441 cell ΔF508-CFTR-HRP cell surface assay (Emax and EC50)
Format: cell-based
Conditions: for Emax: NCI-H441, NA = Not active
Source text: Example 315: H441 Cell Emax and EC50 Two cell lines were used, the H441 carcinoma line and the CFHBE41o- (41o-) human bronchial epithelial line. Both cell lines expressed human Cystic Fibrosis Transmembrane Conductance Regulator (CFTR) harboring the ΔF508 mutation and with an in-frame fusion in CFTR extracellular loop 4 of Horse Radish Peroxidase (HRP) under control of the CMV promoter. In the presence of the HRP tag, ΔF508-CFTR transported to the cell surface was detectable upon addition of an HRP substrate (Luminata Forte). Both cell types were cultivated at 37° C. with CO2. […] For both cell types, the medium was changed every other day unless the culture was at low % confluence. Cells were used for the assays at 75% confluence. To a polypropylene (PP) 384-well plate, 15 pls DMSO was added to all wells in columns 1-22 and 24 (low Control). 15 μls of 260 μM VX809 (Lumacaftor), Selleckchem […], was added to column 23 wells (high Control). 15 pls of 10 mM test compound or VX809 (control) were added to wells of row A. Serial dilutions of Row A compound were performed 2×15 pls in rows A through 0 (15-point). A PP, 384-well plate containing the appropriate cell culture medium was prepared for each assay plate with 100 pls per well. For the doxycycline-induced 41o-cells, doxycycline for both the assay plate and the medium dilution plate was added at 0.0005 mg/ml to the medium. Both cell lines were plated for the assay at 30 pls per 384-well at 3.4×10 e^5 cells per ml ( 10K cells/well). H441 cells were plated on opaque, white, Corning plate 3704. 41o-cells were plated on collagen-coated opaque, white, Corning plate 356665. For 41o-cells, doxycycline was added to the medium. Using FX (Beckman) protocol, 10 pls diluted compound or medium was added per well to the Assay Plate as: 2 pls DMSO Dilution plate well was diluted in 100 pls of the Medium Dilution Plate well, mixed, and 10 pls was transferred to the Assay Plate. The final assay dilution series was 24.5, 12.3, 6.1, 3.1, 1.5, 0.8, 0.4, 0.2, 0.1, 0.05, 0.02, 0.01, 0.006, 0.003, 0.001 and 0 μM. The 41o-assay plates were incubated at 37° C. w/CO2, the H441 assay plates were incubated at 27° C. w/CO2, each overnight for two nights. After being brought to room temperature, the assay plate liquid was removed. 30 uls of Luminata Forte (Millipore ELLUF0100) was added per well and incubated at room temperature for 10 min. The plates were then read on a Topcount, protocol LumiMatti (CPS, luminescence). The data was analyzed for % of maximum, maximum VX809 signal, and EC50 using Pearl and SPEED tools.

T1 sequence (P13569 with tags, fused parts or gaps DEL508-508): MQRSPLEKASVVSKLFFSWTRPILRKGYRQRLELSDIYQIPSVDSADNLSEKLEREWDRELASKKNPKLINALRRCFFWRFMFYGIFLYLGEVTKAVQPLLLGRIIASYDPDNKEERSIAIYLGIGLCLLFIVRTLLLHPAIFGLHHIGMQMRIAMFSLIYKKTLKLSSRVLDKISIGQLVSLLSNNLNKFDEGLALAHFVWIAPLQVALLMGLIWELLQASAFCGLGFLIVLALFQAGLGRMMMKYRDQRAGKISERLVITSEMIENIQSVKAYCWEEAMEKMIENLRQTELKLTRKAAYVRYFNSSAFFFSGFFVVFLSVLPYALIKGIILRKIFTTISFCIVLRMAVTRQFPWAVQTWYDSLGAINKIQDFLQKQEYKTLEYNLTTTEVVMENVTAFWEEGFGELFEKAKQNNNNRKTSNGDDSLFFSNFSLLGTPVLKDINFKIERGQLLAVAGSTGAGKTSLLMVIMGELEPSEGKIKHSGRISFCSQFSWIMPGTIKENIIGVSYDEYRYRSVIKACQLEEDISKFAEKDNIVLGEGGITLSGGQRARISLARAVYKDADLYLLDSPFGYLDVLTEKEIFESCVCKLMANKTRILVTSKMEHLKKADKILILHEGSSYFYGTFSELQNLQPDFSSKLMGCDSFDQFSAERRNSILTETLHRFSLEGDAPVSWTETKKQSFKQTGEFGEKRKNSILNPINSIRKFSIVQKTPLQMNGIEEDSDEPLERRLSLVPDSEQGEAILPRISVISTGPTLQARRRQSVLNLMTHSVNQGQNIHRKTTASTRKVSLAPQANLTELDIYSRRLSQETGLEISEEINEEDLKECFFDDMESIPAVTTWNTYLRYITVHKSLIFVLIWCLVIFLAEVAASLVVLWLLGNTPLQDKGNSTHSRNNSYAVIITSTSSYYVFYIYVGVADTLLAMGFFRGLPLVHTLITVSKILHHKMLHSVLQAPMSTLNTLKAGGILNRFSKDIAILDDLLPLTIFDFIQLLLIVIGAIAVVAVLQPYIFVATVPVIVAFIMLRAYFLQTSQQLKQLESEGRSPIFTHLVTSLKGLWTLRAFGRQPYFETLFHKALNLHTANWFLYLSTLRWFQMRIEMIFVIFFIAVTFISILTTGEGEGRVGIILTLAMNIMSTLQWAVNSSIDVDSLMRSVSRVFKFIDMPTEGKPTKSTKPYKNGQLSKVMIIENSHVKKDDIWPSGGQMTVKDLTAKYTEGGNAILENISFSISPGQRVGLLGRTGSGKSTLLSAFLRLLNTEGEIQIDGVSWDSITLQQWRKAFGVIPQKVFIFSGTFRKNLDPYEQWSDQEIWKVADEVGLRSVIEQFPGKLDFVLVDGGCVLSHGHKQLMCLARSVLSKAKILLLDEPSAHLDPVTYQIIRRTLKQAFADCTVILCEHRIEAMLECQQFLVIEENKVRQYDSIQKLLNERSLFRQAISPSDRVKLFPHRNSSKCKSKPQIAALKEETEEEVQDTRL

Structure (SMILES)	EC50 [µM]	Emax [%]
O=C(N[C@H](C(=O)O)C12CC(C(F)(F)F)(C1)C2)c1ccc2cc(F)ccc2c1OCc1ccc(C(F)(F)F)cc1 [Example 15, (S)-2-(6-fluoro-1-((4-(trifluoromethyl)benzyl)oxy)-2-naphthamido)-2-(3-(trifluoromethyl)bicyclo[1.1.1]pentan-1-yl)acetic Acid]	1.7	48.4
O=C(N[C@H](Cc1ccccc1)C(=O)O)c1ccc2ccccc2c1OCc1ccc(C(F)(F)F)cc1 [Example 89, (1-((4-(trifluoromethyl)benzyl)oxy)-2-naphthoyl)-D-phenylalanine]	1.4	47.6
COC(C)(C)[C@H](NC(=O)c1ccc2cc(F)ccc2c1OCc1ccc(SC(F)(F)F)cc1)C(=O)O [Example 118, (S)-2-(6-fluoro-1-((4-((trifluoromethyl)thio)benzyl)oxy)-2-naphthamido)-3-methoxy-3-methylbutanoic Acid]	2.8	71
CC(OCc1ccccc1)[C@H](NC(=O)c1ccc2cc(F)ccc2c1OCc1nc2ccccc2s1)C(=O)O (stereo in doubt) [Example 215, N-(1-(benzo[d]thiazol-2-ylmethoxy)-6-fluoro-2-naphthoyl)-O-benzyl-L-allothreonine]	5.7	89.9
CC(C)(C)[C@H](NC(=O)c1ccc2ccccc2c1OCc1ccc(Br)cc1)C(=O)O [Example 46, (S)-2-(1-((4-bromobenzyl)oxy)-2-naphthamido)-3,3-dimethylbutanoic Acid]	3.5	26.9
CC1(C(NC(=O)c2ccc3ccccc3c2OCc2ccc(S(C)(=O)=O)cc2)C(=O)O)CCCCC1 (stereo not drawn) [Example 44, 2-(1-methylcyclohexyl)-2-(1-((4-(methylsulfonyl)benzyl)oxy)-2-naphthamido)acetic Acid]	5.1	19.9
O=C(N[C@@H](Cc1ccccc1)C(=O)O)c1ccc2ccccc2c1OCc1ccc2c(c1)OCO2 [Example 121, (1-(benzo[d][1,3]dioxol-5-ylmethoxy)-2-naphthoyl)-L-phenylalanine]	0.2	3.7
O=C(N[C@@H](Cc1ccc(C(F)(F)F)cc1)C(=O)O)c1ccc2cc(F)ccc2c1OCC1CCCCC1 [Example 204, (S)-2-(1-(cyclohexylmethoxy)-6-fluoro-2-naphthamido)-3-(4-(trifluoromethyl)phenyl)propanoic Acid]	–	6.8
CC(C)(S[C@@H]1C[C@@H]2CC[C@H]1C2)[C@H](NC(=O)c1ccc2ccccc2c1OCc1ccc(S(C)(=O)=O)cc1)C(=O)O [Example 176, (R)-3-(((1S,2R,4R)-bicyclo[2.2.1]heptan-2-yl)thio)-3-methyl-2-(1-((4-(methylsulfonyl)benzyl)oxy)-2-naphthamido)butanoic Acid]	–	38.4
COc1ccc2c(OCc3ccc(SC(F)(F)F)cc3)c(C(=O)N[C@H](C(=O)O)C3CCCC3)ccc2c1 [Example 162, (S)-2-cyclopentyl-2-(6-methoxy-1-((4-((trifluoromethyl)thio)benzyl)oxy)-2-naphthamido)acetic Acid]	1.6	26
O=C(N[C@H](C(=O)O)C12CC(C(F)(F)F)(C1)C2)c1ccc2ccccc2c1OCc1ccc(S(F)(F)(F)(F)F)cc1 [Example 24, (S)-2-(1-((4-(pentafluoro-λ^6-sulfanyl)benzyl)oxy)-2-naphthamido)-2-(3-(trifluoromethyl)bicyclo[1.1.1]pentan-1-yl)acetic Acid]	1.1	66.1
CCC(C)(C)[C@H](NC(=O)c1ccc2cc(F)ccc2c1OCC1CCC(F)(F)CC1)C(=O)O [Example 34, (S)-2-(1-((4,4-difluorocyclohexyl)methoxy)-6-fluoro-2-naphthamido)-3,3-dimethylpentanoic Acid]	3.8	78.4
CC(C)(C)C[C@H](NC(=O)c1ccc2ccccc2c1OCc1ccc(S(=O)(=O)C(F)(F)F)cc1)C(=O)O [Example 157, (S)-4,4-dimethyl-2-(1-((4-((trifluoromethyl)sulfonyl)benzyl)oxy)-2-naphthamido)pentanoic Acid]	7.1	55
CCC(C)(C)[C@H](NC(=O)c1ccc2ccccc2c1OCc1ccc(S(C)(=O)=O)cc1)C(=O)O [Example 53, (S)-3,3-dimethyl-2-(1-((4-(methylsulfonyl)benzyl)oxy)-2-naphthamido)pentanoic Acid]	22.9	19.8
N#Cc1ccc(COc2c(C(=O)N[C@@H](Cc3ccccc3)C(=O)O)ccc3ccccc23)cc1 [Example 125, (1-((4-cyanobenzyl)oxy)-2-naphthoyl)-L-phenylalanine]	20.3	31.5
O=C(N[C@H](C(=O)O)C1CCCC1)c1ccc2ccccc2c1OCc1ccc(S(=O)(=O)C(F)(F)F)cc1 [Example 156, (S)-2-cyclopentyl-2-(1-((4-((trifluoromethyl)sulfonyl)benzyl)oxy)-2-naphthamido)acetic Acid]	1.9	51.7
N#Cc1ccc(C[C@H](NC(=O)c2ccc3ccccc3c2OCc2ccc(C(F)(F)F)cc2)C(=O)O)cc1 [Example 107, (S)-3-(4-cyanophenyl)-2-(1-((4-(trifluoromethyl)benzyl)oxy)-2-naphthamido)propanoic Acid]	10.9	63.4
O=C(N[C@H](C(=O)O)C1CCCC1)c1ccc2cc(F)ccc2c1OCc1ccc(S(F)(F)(F)(F)F)cc1 [Example 113, (S)-2-cyclopentyl-2-(6-fluoro-1-((4-(pentafluoro-16-sulfanyl)benzyl)oxy)-2-naphthamido)acetic Acid]	3.7	58.2
CCC(C)(C)[C@H](NC(=O)c1ccc2c(F)cc(C)cc2c1OCc1ccc(C(F)(F)F)cc1)C(=O)O [Example 272, (2S)-2-[[5-fluoro-7-methyl-1-[[4-(trifluoromethyl)phenyl]methoxy]-naphthalene-2-carbonyl]amino]-3,3-dimethyl-pentanoic Acid]	0.2	392
CC(C)C#CCOc1c(C(=O)N[C@H](C(=O)O)C(C)(C)C)ccc2cc(F)ccc12 [Example 224, (2S)-2-[[6-fluoro-1-(4-methylpent-2-ynoxy)naphthalene-2-carbonyl]amino]-3,3-dimethyl-butanoic Acid]	12.8	119
O=C(NC(C(=O)O)C(C(F)(F)F)C(F)(F)F)c1ccc2ccccc2c1OCC1CCCCC1 (stereo not drawn) [Example 183, 2-(1-(cyclohexylmethoxy)-2-naphthamido)-4,4,4-trifluoro-3-(trifluoromethyl)butanoic Acid]	3.2	63.9
CC(C)(C)[C@H](NC(=O)c1ccc2ccccc2c1OCc1ccncc1)C(=O)O [Example 232, (2S)-3,3-dimethyl-2-[[1-(4-pyridylmethoxy)naphthalene-2-carbonyl]amino]butanoic Acid]	3.1	8.5
C[C@@H](OCc1ccccc1)C(NC(=O)c1ccc2ccccc2c1OCC1CC2CCC1C2)C(=O)O (stereo partly drawn) [Example 147, (3R)-3-(benzyloxy)-2-(1-(bicyclo[2.2.1]heptan-2-ylmethoxy)-2-naphthamido)butanoic Acid]	16.8	68.9
CC(C)(C)[C@H](NC(=O)c1ccc2ccccc2c1OCC1CCC(CO)CC1)C(=O)O (stereo partly drawn) [Example 29, (S)-2-(1-((4-(hydroxymethyl)cyclohexyl)methoxy)-2-naphthamido)-3,3-dimethylbutanoic Acid]	–	27.8
